{"source": "patent US7301020B2", "about": "“Macrolide analogs and methods for identifying same” (priority 2003, dated 2007)", "key": {"G-actin": {"biological_target": "T1, G-actin (Oryctolagus cuniculus, UniProt P68135)", "T1 construct": "F-actin is purified from rabbit skeletal muscle using a standard protocol; from tissue; host or cells: rabbit skeletal muscle", "assay": "Prodan-actin polymerization assay", "assay_type": "biochemical, rabbit", "settings": "stoichiometric binding conditions", "protocol": "FIG. 5: Time course for G-actin polymerization. Prodan-labeled G-actin is mixed to a final concentration of 5 μM with a pre-formed complex of G-actin-KBC at the following concentrations: a: 0 nM; b: 1 nM; c: 5 nM; d: 10 nM; e: 20 nM; f: 50 nM; g: 250 nM) and the polymerization reaction initiated by the addition of KCl and MgCl2 to 0.1 M and 2 mM respectively at 20°. Excitation at 385 nm and Emission at 465 nm.\nProdan-Actin Polymerization assay The fluorescence emission spectrum of a 5 μM solution of Prodan-labeled G-actin is recorded in G-buffer. Polymerization is initiated by adding KCl and MgCl2 to 100 mM and 2 mM respectively and the time course of the reaction is monitored continuously over a 60-minute period time by recording the emission intensity at 465 nm. In other experiments the progress of actin polymerization is determined by recording the Prodan-actin emission spectrum at defined times during the reaction.\nThe G-actin-KabC complex inhibits actin polymerization by capping the (+)-end of the filament. […] Adding KCl and MgCl2 to 100 mM and 2 mM respectively polymerizes this G-actin mixture and the progress of the reaction is monitored by the increase in Prodan-actin fluorescence at 465 nm (FIG. 5; Marriott et al, 1988). […]"}, "Prodan-labeled G-actin": {"biological_target": "T2, Prodan-labeled G-actin (Oryctolagus cuniculus, UniProt P68135)", "T2 construct": "F-actin is purified from rabbit skeletal muscle using a standard protocol; Prodan (Acrylodan) fluorophore, chemical label on the thiol of Cys374; from tissue; host or cells: rabbit skeletal muscle", "assay": "Prodan-G-actin titration: binding stoichiometry and dissociation constant", "design": "species or system rabbit", "protocol": "FIG. 2: (A), Stoichiometric binding of Prodan-labeled G-actin (1 μM) in G-buffer with KabC at final concentrations of in μm, a: 0.0; b: 0.1; c: 0.2; d: 0.3; e: 0.4; f: 0.5; g: 0.6; h: 0.7; i: 0.8; j: 0.9; k: 1.0; l: 1.1; m: 1.2; n: 1.5 (B), Plot of the integrated intensity in (A) against [KabC] yields a binding stoichiometry of 1:1.\nProdan-actin: Actin is labeled with the thiol probe, Acrylodan (Molecular Probes, Eugene, Oreg.) using a standard protocol (Marriott et al, 1988). Rabbit muscle G-actin is labeled with the thiol reactive, environmentally sensitive probe, Acrylodan, according to the inventor's earlier publication (Marriott et al, 1988). […]\nDetermination of the binding stoichiometry and dissociation constants for G-actin complexes with ABPs and macrolide drugs: The change in the quantum yield and/or emission energy of Prodan-actin is used to quantify the interaction of CapG and macrolides with G-actin. The stoichiometry of the CapG-G-actin and macrolide-G-actin complex is determined by titrating Prodan-G-actin at 1 μM with increasing amounts of CapG or the macrolide from 0.1^−10 μM. […] The equilibrium binding constant is determined by titrating a constant amount of Prodan labeled G-actin at 0.05˜0.1 μM in G- or F-buffer with incrementally increasing amounts of the macrolide or CapG over a range of 10 nM to 10 μM. […]"}}}
{"substance": "Kabiramide C [KabC]", "values": [{"measurement": "actin monomer sequestering", "setting": "G-actin", "result": "sequester actin monomers and raise the critical concentration for actin polymerization"}, {"measurement": "decrease of quantum yield of Prodan-G-actin on binding", "setting": "Prodan-labeled G-actin", "result": "~3", "unit": "fold"}]}
